What was measured:
Assay in all cases: CDKi biochemical assay (TR-FRET, phosphorylation of S780 on RB1 peptide)
CDK2/CyclinE1 = CDK2/CyclinE1 (Homo sapiens, UniProt P24941); conditions: CDK2/CyclinE1 100 pM, 1 mM ATP, 60 min at 25° C.
Method: (§1) Biochemical assays measured the inhibitory effects of compounds in this disclosure on the enzymatic activity of CDK enzyme in complex with Cyclin protein partner by phosphorylation of Ser-780 (S780) on retinoblastoma protein peptide (RB1) in the presence of 1 mM adenosime-5-triphosphate (ATP) and varying concentration of test compound in 20 mM 2-[4-(2-hydroxyethyl)paperazin-1-yl] ethanesulfonic acid (HEPES), pH 7.5, 10 mM MgCl2, 1 mM dithiothreitol (DTT), 0.01% bovine serum albumin (BSA), 0.005% Tween 20. Total Reaction volume of 10 μL proceeded for 60 minutes at room temperature (25° C.) and were quenched with 5 μL of 200 mM 2′,2″,2′″-(Ethane-1,2-diyldinitrilo)tetraacetic acid (EDTA) pH 8.0 before addition of 5 μL detection solution containing 100 nM fluorophore conjugate streptavidin allophycocyanin (SA-APC), 2 nM Europium labelled Anti-p-RB(S780)-K (Perkin Elmer, 64CUSKAY), 50 mM HEPES, pH 7.5, 400 mM potassium fluoride (KF), 0.1% BSA, and 0.01% Tween-20. Phosphorylation of S780 on RB1 peptide (His-MBP-RB1[773-924]-SEQ ID NO. 9) was detected by TR-FRET after 3 hour incubation with detection solution. Percent phosphorylation activity was plotted against log concentration of compound to generate an apparent ICSO. The following CDK enzyme in complex with different cyclin proteins and protein peptide substrate were used in these assays: • CDK1/CyclinB1, Avi-tag, 10 pM used in the assay • CDK2/CyclinE1, Avi-tag, 100 pM used in the assay • CDK4/cyclinD1, Avi-tag, 20 pM used in the assay • CDK6/cyclinD3, Avi-tag, 10 pM used in the assay • His-MBP-RB1[773-924], Avi-tag, 200 nM used in the assay
(§2) The avi-tag is a C-terminal fusion on the CDK1/2/4/6 sequence in each of these two-protein complexes. The known avi-tag sequence, […] (SEQ ID NO. 10), is a substrate for E. coli biotin ligase BirA, which covalently attaches a biotin molecule to the e-amino group of the lysine in that sequence. The avi-tag is attached with an 8 amino-acid linker sequence GGSGGGGS (SEQ ID NO. 11), resulting in the full C-terminal fusion
(§3) Recombinant proteins were generated as N-terminal fusions of 9× His tag—E. coli Maltose Binding Protein (MBP), with or without a C-terminal Avi-tag.^1 CDK2 and His-MBP-RB1[773-924]-c-avi were expressed in E. coli while the remainder were expressed in Sf21 insect cells. Genes were synthesized commercially (GeneArt and Twist Bioscience) using codon frequencies appropriate to the respective organisms and proprietary codon optimization strategies, and inserted into pET 24 (E. coli) or pDEST8 (insect) vectors already containing the 9× His-MBP tag using standard methods of PCR and Gibson Assembly.^2 E. coli expression was performed by auto-induction overnight at 18 or 21 C. For insect cell expression, bacmids and viruses were created,^3 then used to synchronously infect Sf21 insect cells with harvest at 40-48 hrs., per standard protocols.^4
(§4) For CDK2/Cyclin E and CDK1/Cyclin B, the CDK and Cyclin proteins were expressed separately, lysed by sonication and clarified by centrifugation. The fusion proteins were each separately purified by immobilized metal ion affinity chromatography (IMAC) (5 mL HisTrap, Cytiva) and Superdex 200 26/60 (Cytiva) size-exclusion and complexed in vitro (1-3 hrs incubation at room temperature) prior to tag cleavage by recombinant his-tagged Tobacco Etch Virus protease or his-tagged Human rhinovirus 3C protease, as appropriate. The cleaved complex is further purified by Superdex 75 26/60 (Cytiva) size-exclusion followed by reverse-IMAC, in which the complex is in the column flow-through and residual His-MBP and his-tagged proteases are retained. The final complex is concentrated as desired by centrifugal concentration (Amicon Ultra 10,000 Da MWCO 15 mL concentrators, Millipore).
For E. coli expressed CDK2 and His-MBP-RB1[773-924]-c-avi, the proteins were biotinylated in vitro after the first IMAC step.^1
(§5) For the is-MBP-RB1[773-924]-c-avi, the protein was lysed by sonication and clarified by centrifugation. […]

CDK1/CyclinB1 = CDK1/CyclinB1 (Homo sapiens, UniProt P06493); conditions: CDK1/CyclinB1 10 pM, 1 mM ATP, 60 min at 25° C.
Method: as §1, §2, §3, §4, §5

CDK4/cyclinD1 = CDK4/cyclinD1 (Homo sapiens, UniProt P11802); conditions: CDK4/cyclinD1 20 pM, 1 mM ATP, 60 min at 25° C.
Method: as §1, §2, §3
(§6) For CDK4/Cyclin D1 and CDK6/Cyclin D3, the complexes were expressed by simultaneous co-infection of insect cells by three separate viruses including one expressing untagged E. coli BirA. The expression media is supplemented with 50 uM d-biotin. The resulting protein complexes purified similarly. After lysis and clarification, the complex is purified by IMAC, Superdex 200 26/60 size exclusion, tag cleavage by human rhinovirus 3C protease, Superdex 75 26/60 size exclusion and reverse IMAC. BirA is typically not retained on the first IMAC, and excess CDK or Cyclin monomer is separated on the Superdex 200 size exclusion. Cleaved His-MBP and remaining monomer are removed by the Superdex 75 size exclusion and the reverse IMAC step. Final concentration by centrifugal concentrators as described above.
as §5

CDK6/cyclinD3 = CDK6/cyclinD3 (Homo sapiens, UniProt Q00534); conditions: CDK6/cyclinD3 10 pM, 1 mM ATP, 60 min at 25° C.
Method: as §1, §2, §3, §6, §5

Row | IC50 (CDK2/CyclinE1) | IC50 (CDK1/CyclinB1) | IC50 (CDK4/cyclinD1) | IC50 (CDK6/cyclinD3) | SMILES
1 | 0.022 µM | 4.27 µM | 6.95 µM | 9.8 µM | O=C1N([C@@H]2CCC[C@@H](O)C2)c2nc(Nc3c[nH]nc3OC3CCC(F)(F)C3)ncc2C12CC2 (some centres unmarked) [Example 30]
2 | 0.021 µM | 6.57 µM | 6.3 µM | 9.7 µM | Cn1ncc(-c2n[nH]cc2Nc2ncc3c(n2)N([C@@H]2CCC[C@@H](O)C2)C(=O)C32CC2)c1C(F)F [Example 31, 2′-((5′-(difluoromethyl)-1′-methyl-1H,1′H-[3,4′-bipyrazol]-4-yl)amino)-7′-((1R,3R)-3-hydroxycyclohexyl)spiro[cyclopropane-1,5′-pyrrolo[2,3-d]pyrimidin]-6′(7′H)-one]
3 | 0.049 µM | 3.76 µM | ≥ 10 µM | ≥ 10 µM | O=C1N([C@@H]2CCC[C@@H](O)C2)c2nc(Nc3c[nH]nc3[C@@H]3CC3(F)F)ncc2C12CC2 [Example 33, 2′-((3-((S)-2,2-difluorocyclopropyl)-1H-pyrazol-4-yl)amino)-7′-((1R,3R)-3-hydroxycyclohexyl)spiro[cyclopropane-1,5′-pyrrolo[2,3-d]pyrimidin]-6′(7′H)-one]
4 | 0.01 µM | 2.31 µM | 3.31 µM | 3.31 µM | O=C1N([C@@H]2CCC[C@@H](O)C2)c2nc(Nc3c[nH]nc3-c3cnn(C(F)F)c3)ncc2C12CC2 [Example 34, 2′-((1′-(difluoromethyl)-1H,1′H-[3,4′-bipyrazol]-4-yl)amino)-7′-((1R,3R)-3-hydroxycyclohexyl)spiro[cyclopropane-1,5′-pyrrolo[2,3-d]pyrimidin]-6′(7′H)-one]
5 | 0.054 µM | 3.16 µM | ≥ 10 µM | ≥ 10 µM | Cn1cc(Oc2n[nH]cc2Nc2ncc3c(n2)N([C@@H]2CCC[C@@H](O)C2)C(=O)C32CC2)cn1 [Example 35, 7′-((1R,3R)-3-hydroxycyclohexyl)-2′-((3-((1-methyl-1H-pyrazol-4-yl)oxy)-1H-pyrazol-4-yl)amino)spiro[cyclopropane-1,5′-pyrrolo[2,3-d]pyrimidin]-6′(7′H)-one]
6 | 0.039 µM | 4.99 µM | ≥ 10 µM | ≥ 10 µM | O=C1N([C@@H]2CCC[C@@H](O)C2)c2nc(Nc3c[nH]nc3C#Cc3cccnc3)ncc2C12CC2 [Example 36, 7′-((1R,3R)-3-hydroxycyclohexyl)-2′-((3-(pyridin-3-ylethynyl)-1H-pyrazol-4-yl)amino)spiro[cyclopropane-1,5′-pyrrolo[2,3-d]pyrimidin]-6′(7′H)-one]
7 | 0.031 µM | ≥ 10 µM | ≥ 10 µM | ≥ 10 µM | Cc1c(-c2n[nH]cc2Nc2ncc3c(n2)N([C@@H]2CCC[C@@H](O)C2)C(=O)C32CC2)cnn1C [Example 37, 2′-((1′,5′-dimethyl-1H,1′H-[3,4′-bipyrazol]-4-yl)amino)-7′-((1R,3R)-3-hydroxycyclohexyl)spiro[cyclopropane-1,5′-pyrrolo[2,3-d]pyrimidin]-6′(7′H)-one]
8 | 0.008 µM | 1.04 µM | 6.1 µM | 9.2 µM | O=C1N([C@@H]2CCC[C@@H](O)C2)c2nc(Nc3c[nH]nc3OCC3CC3)ncc2C12CC2 [Example 38, 2′-((3-(cyclopropylmethoxy)-1H-pyrazol-4-yl)amino)-7′-((1R,3R)-3-hydroxycyclohexyl)spiro[cyclopropane-1,5′-pyrrolo[2,3-d]pyrimidin]-6′(7′H)-one]
9 | 0.007 µM | 1.2 µM | 1.43 µM | 2.95 µM | O=C1N([C@@H]2CCC[C@@H](O)C2)c2nc(Nc3c[nH]nc3OCCF)ncc2C12CC2 [Example 39, 2′-((3-(2-fluoroethoxy)-1H-pyrazol-4-yl)amino)-7′-((1R,3R)-3-hydroxycyclohexyl)spiro[cyclopropane-1,5′-pyrrolo[2,3-d]pyrimidin]-6′(7′H)-one]
10 | 0.005 µM | 0.73 µM | 2.68 µM | 5.09 µM | O=C1N([C@@H]2CCC[C@@H](O)C2)c2nc(Nc3c[nH]nc3OCC(F)F)ncc2C12CC2 [Example 41, 2′-((3-(2,2-difluoroethoxy)-1H-pyrazol-4-yl)amino)-7′-((1R,3R)-3-hydroxycyclohexyl)spiro[cyclopropane-1,5′-pyrrolo[2,3-d]pyrimidin]-6′(7′H)-one]
11 | 0.024 µM | 3.74 µM | 3.64 µM | 3.01 µM | O=C1N([C@@H]2CCC[C@@H](O)C2)c2nc(Nc3c[nH]nc3OCCO)ncc2C12CC2 [Example 42, 7′-((1R,3R)-3-hydroxycyclohexyl)-2′-((3-(2-hydroxyethoxy)-1H-pyrazol-4-yl)amino)spiro[cyclopropane-1,5′-pyrrolo[2,3-d]pyrimidin]-6′(7′H)-one]
12 | 0.019 µM | 1.76 µM | 3.09 µM | 8.84 µM | Cn1ccc(COc2n[nH]cc2Nc2ncc3c(n2)N([C@@H]2CCC[C@@H](O)C2)C(=O)C32CC2)n1 [Example 43, 7′-((1R,3R)-3-hydroxycyclohexyl)-2′-((3-((1-methyl-1H-pyrazol-3-yl)methoxy)-1H-pyrazol-4-yl)amino)spiro[cyclopropane-1,5′-pyrrolo[2,3-d]pyrimidin]-6′(7′H)-one]

Row | SMILES | IC50 (CDK2/CyclinE1) | IC50 (CDK1/CyclinB1) | IC50 (CDK4/cyclinD1) | IC50 (CDK6/cyclinD3)
13 | O=C1N([C@@H]2CCC[C@@H](O)C2)c2nc(Nc3c[nH]nc3OC3CC(F)(F)C3)ncc2C12CC2 [Example 29, 2′-((3-(3,3-difluorocyclobutoxy)-1H-pyrazol-4-yl)amino)-7′-((1R,3R)-3-hydroxycyclohexyl)spiro[cyclopropane-1,5′-pyrrolo[2,3-d]pyrimidin]-6′(7′H)-one] | 0.026 µM | 3.84 µM | 7.4 µM | ≥ 10 µM
14 | O=C1N([C@@H]2CCC[C@@H](O)C2)c2nc(Nc3c[nH]nc3OC3CCC3)ncc2C12CC2 [Example 40, 2′-((3-cyclobutoxy-1H-pyrazol-4-yl)amino)-7′-((1R,3R)-3-hydroxycyclohexyl)spiro[cyclopropane-1,5′-pyrrolo[2,3-d]pyrimidin]-6′(7′H)-one] | 0.026 µM | 2.89 µM | ≥ 10 µM | ≥ 10 µM
